In the assay the test system is CD2F1 mice, L1210 leukemia ip, survival T/C. The assay is described as follows: NCI In Vivo Anticancer Drug Screen. Data for tumor model L1210 Leukemia (intraperitoneal) in CD2F1 (CDF1) mice. The conditions noted are these: endpoint: mean survival time, higher = longer survival. In short, it runs like this:
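Ratio T/C, where T is the treated-group value and C the vehicle-dosed control value, from mice implanted with a transplantable tumor.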

The mark [1] stands for this setting: dose: 6.25 mg/kg/injection, schedule: Q01DX009 (ip), vehicle: saline with Tween-80.
[2] abbreviates: dose: 25.0 mg/kg/injection, schedule: Q01DX009 (ip), vehicle: saline with Tween-80.
Setting [3] is: dose: 50.0 mg/kg/injection, schedule: Q01DX009 (ip), vehicle: saline with Tween-80.
Where [4] appears, read: dose: 100.0 mg/kg/injection, schedule: Q01DX001 (ip), vehicle: saline with Tween-80.
[5] abbreviates: dose: 100.0 mg/kg/injection, schedule: Q01DX009 (ip), vehicle: saline with Tween-80.
Where [6] appears, read: dose: 200.0 mg/kg/injection, schedule: Q01DX001 (ip), vehicle: saline with Tween-80.
Setting [7] is: dose: 200.0 mg/kg/injection, schedule: Q01DX009 (ip), vehicle: saline with Tween-80.
Where [8] appears, read: dose: 400.0 mg/kg/injection, schedule: Q01DX001 (ip), vehicle: saline with Tween-80.
[9] abbreviates: dose: 100.0 mg/kg/injection, schedule: Q04DX003 (ip), vehicle: saline with Tween-80.
Setting [10] is: dose: 200.0 mg/kg/injection, schedule: Q04DX003 (ip), vehicle: saline with Tween-80.
[11] abbreviates: dose: 400.0 mg/kg/injection, schedule: Q04DX003 (ip), vehicle: saline with Tween-80.
Setting [12] is: dose: 100.0 mg/kg/injection, schedule: Q01DX009 (ip), vehicle: saline sonified.
Setting [13] is: dose: 200.0 mg/kg/injection, schedule: Q01DX009 (ip), vehicle: saline sonified.
[14] abbreviates: dose: 400.0 mg/kg/injection, schedule: Q01DX009 (ip), vehicle: saline sonified.

Each structure is given as a SMILES string. Inconclusive results and toxic doses are left out.

As to `COC(=O)c1cc([N+](=O)[O-])cc([N+](=O)[O-])c1Sc1ncnc2nc[nH]c12`, the T/C (dose: 0.63 mg/kg/injection, schedule: Q01DX005 (ip), vehicle: other) was 100 % of control; the T/C (dose: 1.25 mg/kg/injection, schedule: Q01DX005 (ip), vehicle: other) is 100 % of control; the T/C (dose: 2.5 mg/kg/injection, schedule: Q01DX005 (ip), vehicle: other) is 107 % of control; the T/C (dose: 5.0 mg/kg/injection, schedule: Q01DX005 (ip), vehicle: other) is 112 % of control; the T/C (dose: 10.0 mg/kg/injection, schedule: Q01DX005 (ip), vehicle: other) is 112 % of control; the T/C (dose: 40.0 mg/kg/injection, schedule: Q01DX005 (ip), vehicle: other) is 95 % of control.
Take `Cc1ccc(C(=O)Nc2ncn(C3CC(O)C(CO)O3)c(=O)n2)cc1` (configuration not stated): the T/C (dose: 1.56 mg/kg/injection, schedule: Q01DX005 (ip), vehicle: saline with Tween-80) is 116 % of control; the T/C (dose: 3.13 mg/kg/injection, schedule: Q01DX005 (ip), vehicle: saline with Tween-80) was 154 % of control; the T/C (dose: 6.25 mg/kg/injection, schedule: Q01DX005 (ip), vehicle: saline with Tween-80) was 276 % of control; the T/C (dose: 12.5 mg/kg/injection, schedule: Q01DX005 (ip), vehicle: saline with Tween-80) is 244 % of control; the T/C (dose: 50.0 mg/kg/injection, schedule: Q01DX005 (ip), vehicle: saline with Tween-80) is 92 % of control.
As to `CC(=O)Nc1cccc(N=Cc2ccc(N(CCOS(C)(=O)=O)CCOS(C)(=O)=O)cc2C)c1`, the T/C is 123 % of control under setting [1]; 118 % of control (dose: 8.0 mg/kg/injection, schedule: Q01DX009 (ip), vehicle: saline with Tween-80); 124 % of control under setting [2].
Consider `CC(CC(=O)c1ccccc1)=Nc1ccccc1.CC(CC(=O)c1ccccc1)=Nc1ccccc1.[O]=[V]`, for which the T/C is, setting by setting: (dose: 50.0 mg/kg/injection, schedule: Q01DX001 (ip), vehicle: Klucel (hydroxypropylcellulose) (HPC)) 96 % of control; (dose: 100.0 mg/kg/injection, schedule: Q01DX001 (ip), vehicle: Klucel (hydroxypropylcellulose) (HPC)) 88 % of control; (dose: 200.0 mg/kg/injection, schedule: Q01DX001 (ip), vehicle: Klucel (hydroxypropylcellulose) (HPC)) 94 % of control; (dose: 400.0 mg/kg/injection, schedule: Q01DX001 (ip), vehicle: Klucel (hydroxypropylcellulose) (HPC)) 93 % of control; (dose: 800.0 mg/kg/injection, schedule: Q01DX001 (ip), vehicle: Klucel (hydroxypropylcellulose) (HPC)) 90 % of control.
For `Cc1cc(I)ccc1NC(=S)Nc1ccccc1F`, the T/C is, setting by setting: under setting [3], 93 % of control; under setting [4], 100 % of control; under setting [5], 90 % of control; under setting [6], 96 % of control; under setting [7], 93 % of control; under setting [8], 96 % of control.
For the molecule `CSc1n[nH]c(N)n1`, the T/C under setting [9] was 94 % of control, the T/C under setting [10] is 94 % of control and the T/C under setting [11] is 90 % of control.
As to `Cc1cc(C)cc(C(C)C)c1`, the T/C runs as follows: under setting [5], 98 % of control; under setting [7], 101 % of control.
Turning to `CCOC(=O)Nc1cc(=O)c([N+](=O)[O-])c(NC(=O)OCC)[nH]1`, the T/C was 92 % of control (dose: 75.0 mg/kg/injection, schedule: Q04DX003 (ip), vehicle: saline); 97 % of control (dose: 150.0 mg/kg/injection, schedule: Q04DX003 (ip), vehicle: saline); 101 % of control (dose: 300.0 mg/kg/injection, schedule: Q04DX003 (ip), vehicle: saline).
In the case of `C1CC2OC2CCC2OC12` (configuration not stated), the T/C by setting is: under setting [12], 103 % of control; under setting [9], 100 % of control; under setting [13], 104 % of control; under setting [10], 97 % of control; under setting [14], 104 % of control; under setting [11], 103 % of control.
Turning to `CC1(C)CCCC2(C)C(OCCO)=CC(=O)C=C12` (configuration not stated), the T/C was 96 % of control (dose: 100.0 mg/kg/injection, schedule: Q04DX003 (ip), vehicle: saline sonified); 98 % of control (dose: 200.0 mg/kg/injection, schedule: Q04DX003 (ip), vehicle: saline sonified); 96 % of control (dose: 400.0 mg/kg/injection, schedule: Q04DX003 (ip), vehicle: saline sonified).
For the molecule `Cc1c2ccncc2cc2c1[nH]c1ccccc12`, the T/C reads like this: (dose: 0.8 mg/kg/injection, schedule: Q03HX008 (iv), vehicle: saline) 97 % of control; (dose: 1.6 mg/kg/injection, schedule: Q03HX008 (iv), vehicle: saline) 97 % of control; (dose: 1.6 mg/kg/injection, schedule: Q06HX004 (iv), vehicle: saline) 97 % of control; (dose: 3.2 mg/kg/injection, schedule: Q06HX004 (iv), vehicle: saline) 93 % of control; (dose: 3.21 mg/kg/injection, schedule: Q#A X002 (iv), vehicle: saline) 95 % of control; (dose: 6.3 mg/kg/injection, schedule: Q06HX004 (iv), vehicle: saline) 97 % of control. Besides, the T/C was 101 % of control (dose: 6.31 mg/kg/injection, schedule: Q#A X002 (iv), vehicle: saline); 95 % of control (dose: 12.5 mg/kg/injection, schedule: Q01DX001 (iv), vehicle: saline); 100 % of control (dose: 12.51 mg/kg/injection, schedule: Q#A X002 (iv), vehicle: saline); 98 % of control (dose: 25.0 mg/kg/injection, schedule: Q01DX001 (iv), vehicle: saline); 101 % of control (dose: 25.1 mg/kg/injection, schedule: Q#A X002 (iv), vehicle: saline).
Take `CN(C)CCC(=O)c1ccc([N+](=O)[O-])cc1`: the T/C was 102 % of control (dose: 1.25 mg/kg/injection, schedule: Q01DX009 (ip), vehicle: saline with Tween-80); 96 % of control (dose: 2.5 mg/kg/injection, schedule: Q01DX009 (ip), vehicle: saline with Tween-80); 95 % of control (dose: 5.0 mg/kg/injection, schedule: Q01DX009 (ip), vehicle: saline with Tween-80); 100 % of control (dose: 5.0 mg/kg/injection, schedule: Q04DX003 (ip), vehicle: saline with Tween-80).
Regarding `C(=C\c1ccc2ccccc2n1)/c1ccc2c(c1)OCO2`, the T/C is 96 % of control under setting [5]; 102 % of control under setting [9]; 96 % of control under setting [7]; 102 % of control under setting [10]; 95 % of control (dose: 400.0 mg/kg/injection, schedule: Q01DX009 (ip), vehicle: saline with Tween-80); 101 % of control under setting [11].
As for `CC1SCCS1`, the T/C is, setting by setting: under setting [4], 95 % of control; under setting [6], 105 % of control; under setting [8], 100 % of control.
Regarding `Cc1cc(N=C(N)N)ccc1C(=O)Oc1ccc([N+](=O)[O-])cc1`, the T/C runs as follows: (dose: 12.5 mg/kg/injection, schedule: Q01DX009 (ip), vehicle: other) 102 % of control; (dose: 25.0 mg/kg/injection, schedule: Q01DX009 (ip), vehicle: other) 98 % of control; (dose: 50.0 mg/kg/injection, schedule: Q01DX009 (ip), vehicle: other) 90 % of control.
On to `CCCCNCCN(CC)CC`, for which the T/C is 94 % of control under setting [2]; 94 % of control (dose: 25.0 mg/kg/injection, schedule: Q04DX003 (ip), vehicle: saline); 96 % of control under setting [3]; 89 % of control (dose: 50.0 mg/kg/injection, schedule: Q04DX003 (ip), vehicle: saline); 93 % of control under setting [5]; 97 % of control (dose: 100.0 mg/kg/injection, schedule: Q04DX003 (ip), vehicle: saline).
As to `CNC(=S)C(=S)NC`, the T/C is, setting by setting: under setting [1], 100 % of control; (dose: 12.5 mg/kg/injection, schedule: Q01DX009 (ip), vehicle: saline with Tween-80) 97 % of control; under setting [2], 95 % of control; (dose: 50.0 mg/kg/injection, schedule: Q04DX003 (ip), vehicle: saline with Tween-80) 93 % of control.
As to `Cc1sc(N)c(C#N)c1C`, the T/C by setting is: under setting [12], 102 % of control; under setting [13], 102 % of control; under setting [14], 103 % of control.

(Values after PubChem BioAssay AID256 (DTP/NCI, 2004).)
